Data set [1] can be described thus: Viscosity of microemulsions. In kind it is physicochemical. As to conditions: aqueous phase = water; oil plus low HLB surfactant (3:1, 87%), high HLB surfactant (10%), aqueous (3%). From the text:
(§1) All the microemulsions had oil plus low HLB surfactant (3:1, 87%), high HLB surfactant (10%) and aqueous (3%).

The conditions of data set [2]: value in parentheses, from the CRC Handbook of Chemistry and Physics, 60th Edition; cited from earlier work.
A short description of data set [3]: Refractive index of microemulsions. As to conditions: aqueous phase = water; oil plus low HLB surfactant (3:1, 87%), high HLB surfactant (10%), aqueous (3%). In kind it is physicochemical.
Text: as §1

For data set [4] the following is noted: value in parentheses, from the CRC Handbook of Chemistry and Physics, 60th Edition; cited from earlier work. The source holds these as a separate data set.

Where two headings read alike, the source gives them in different places.

On to `CCCCCCCC/C=C\CCCCCCCC(=O)O` [Oleic Acid], for which the figures for the Viscosity in data set [1] and in data set [4] were 23.4 centiPoise and 25.6 centiPoise, respectively. For the same compound, the Refractive index in data set [2] was 1.4583; in data set [3], 1.4582.

Values taken from patent publication EP0597029B1, “W/O MICROEMULSIONS” (SMITHKLINE BEECHAM CORPORATION, priority 1991, dated 1993).
